Reference: patent US12171852B1, “Composition and methods for regulating melanogenesis” (Sytheon Ltd, priority 2023, dated 2024)

Legend:
NADPH Oxidase 4 (NOX-4) = NADPH Oxidase 4 (NOX-4) (Homo sapiens (Human), UniProt Q9NPH5); assay: NADPH oxidase (NOX-4) inhibitory activity, NOX4 ELISA kit; type: biochemical
Procedure: A study was conducted on the direct impact of Zn di-(di-n-butyryl lysinate) (ZDBL), Ca di-(di-n-butyryl lysinate), and Na butyrate on NADPH Oxidase 4 (NOX-4) enzyme. In this study, 0.01 gram of sample was dissolved in 1 ml propanediol to make solution. For the analysis, a 1 to 2 serial dilution of the stock solution of the sample using buffer was made to determine the IC50 values. The analysis was done following NOX4 ELISA kit (My BioSource, Catalog #MBS2505108) protocol.

[1] = test system: microphthalmia-associated transcription factor (MITF) gene expression; assay: MITF gene expression, transcriptome analysis of treated EpiDermFT tissues; type: cell-based; conditions: EpiDermFT tissue, 3 μl of 100 μg/ml solution, 24 hours
Procedure: EpiDermFT tissues were obtained from MatTek and equilibrated overnight in the cell culture incubator. […] All stock solutions were prepared at 20 mg/ml in DMSO and further dilutions were made in sterile distilled water. The proposed dosage used was based on cytotoxicity data. Water was used as the negative control. The treated tissue samples were incubated for a period of 24 hours following which RNA was extracted and prepared for transcriptome analysis for assessing the impact, if any, on the gene expression of microphthalmia-associated transcription factor (MITF). Sequencing data were generated by Azenta Life Sciences (HiSeq 2×150 bp). Analyses were performed using raw FastQ files provided by Azenta.

MITF gene expression = MITF gene expression validated by real-time quantitative PCR in EpiDermFT tissues; type: cell-based; conditions: versus water control
Procedure: As validation of the findings above a second analysis of the tissue samples was performed this time using cDNA prepared using High-Capacity RNA-to-cDNA™ Kit (Thermo Fisher Scientific). Expression of the applicable genes was measured by real-time quantitative PCR with the BioRad iCycler iQ Detection System using PCR primers from Realtimeprimers (Elkins Park, PA) and AzuraView GreenFast qPCR Blue Mix LR (Azura Genomics, Raynham, MA). Efficiency ΔΔCt method was used for quantification of results, after the normalization of gene expression to GAPD (a housekeeping gene).

Thioredoxin reductase 1 = Thioredoxin reductase 1 (Homo sapiens (Human), UniProt Q16881); assay: Thioredoxin reductase 1 (TrxR1) inhibitory activity; type: biochemical; conditions: average of two readings; 1 hour incubation at room temperature
Procedure: Thioredoxin is known to influence melanogenesis substrates [Y Lu et al., Modulating skin colour: role of thioredoxin and glutathione systems in regulating melanogenesis, Bioscience Reports, 2021; 41 BSR20210427]. […] Test materials were prepared by dissolving 0.01 gm of each test material in 1 ml ethanol to make stock solutions. […] The plate was read at 412 nm for 30 minutes to determine the inhibition.

B16-F1 melanocytes = assay: Melanin synthesis in melanocytes, melanin colorimetric competitive ELISA; type: cell-based; conditions: for % Melanin Inhibition: 200 μg/ml, water control = 100; for Melanin-inhibitory activity (in words): colorimetric quantification, ZDBL at 200 μg/ml
mushroom tyrosinase = assay: In vitro tyrosinase inhibition assay (L-DOPA conversion); type: biochemical; conditions: for Tyrosinase enzyme activity (% of Control): 80 min, L-DOPA 5 mM; for Inhibition of tyrosinase activity (in words): particularly at the higher concentrations
Procedure: Louis, MO, catalog #K3125) was employed as the positive control/reference substance. […] [Biosci Biotechnol Biochem, 67:1587-1589, 2003]. […] The final concentration used in the assay was 16 U/well (80 U/ml). Tyrosinase substrate L-DOPA (Acros Organics, Fair Lawn, NJ) was used at 5 mM. Reactions were conducted in a 96 well format and were initiated by adding the enzyme to the reaction mix and allowed to react for 80 min. […] The increase of the melanin output was calculated using the formula: ΔM=[A450 nm(t=80 min.)+Tyrosinase]−[A450 nm(t=80 min.)−Tyrosinase] where ΔM is increase of melanin, A is absorbance for a given experimental condition, t is a time point and 450 nm is the wavelength used for the quantification of melanin and “-Tyrosinase” is the background reading of identical experimental conditions without the enzyme.

Sequence of Thioredoxin reductase 1 (Q16881 151-649): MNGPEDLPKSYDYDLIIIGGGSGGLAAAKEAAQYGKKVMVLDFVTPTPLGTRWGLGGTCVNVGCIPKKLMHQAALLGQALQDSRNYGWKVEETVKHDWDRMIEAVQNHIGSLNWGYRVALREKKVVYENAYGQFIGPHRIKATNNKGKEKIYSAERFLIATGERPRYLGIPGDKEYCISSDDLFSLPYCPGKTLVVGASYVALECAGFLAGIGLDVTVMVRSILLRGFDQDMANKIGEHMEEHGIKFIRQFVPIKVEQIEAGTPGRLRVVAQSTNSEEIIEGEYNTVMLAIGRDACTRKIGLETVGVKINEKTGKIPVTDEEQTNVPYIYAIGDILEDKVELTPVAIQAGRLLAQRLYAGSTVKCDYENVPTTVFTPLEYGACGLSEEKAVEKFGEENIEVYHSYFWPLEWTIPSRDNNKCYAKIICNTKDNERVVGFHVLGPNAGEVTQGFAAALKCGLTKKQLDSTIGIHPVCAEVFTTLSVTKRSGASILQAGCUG

CCCC(=O)NCCCCC(NC(=O)CCC)C(=O)[O-].CCCC(=O)NCCCCC(NC(=O)CCC)C(=O)[O-].[Ca+2] (centres unmarked) [CDBL, calcium di-(di-n-butyryl lysinate)]
IC50 value, NADPH Oxidase (NOX-4) (NADPH Oxidase 4 (NOX-4)): 240 µg/mL
Fold change/mean FPKM = 2.2 (MITF gene expression) [1]: 0.41
MITF gene expression effect (in words) ([1]; listed as Ca di-(di-n-butyryl lysinate) (CDBL)): No effect
MITF gene expression effect (in words) ([1]; listed as Ca di-n-butyryl lysinate): not significantly altered
Comments (MITF gene expression by PCR) (MITF gene expression): No Effect
IC50 value, Thioredoxin Reductase 1 (Thioredoxin reductase 1): 4.53 µg/mL
% Melanin Inhibition (B16-F1 melanocytes; three days): 0%
Melanin-inhibitory activity (in words) (B16-F1 melanocytes): no significant effect
Tyrosinase enzyme activity (% of Control) (mushroom tyrosinase; 10 μg/ml): 85 (p = 0.10) % of Control
Tyrosinase enzyme activity (% of Control) (mushroom tyrosinase; 50 μg/ml): 89 (p = 0.13) % of Control
Tyrosinase enzyme activity (% of Control) (mushroom tyrosinase; 200 μg/ml): 99 (p = 0.86) % of Control
Inhibition of tyrosinase activity (in words) (mushroom tyrosinase): ineffective

NCCCC[C@H](N)C(=O)[O-].NCCCC[C@H](N)C(=O)[O-].[Ca+2] [Ca lysinate (CLY), Ca lysinate]
Fold change/mean FPKM = 2.2 (MITF gene expression) [1]: −0.21
MITF gene expression effect (in words) [1]: No effect
MITF gene expression effect (in words) ([1]; listed as Ca lysinate): not significantly altered
Comments (MITF gene expression by PCR) (MITF gene expression): No Effect

CCCCCCc1ccc(O)cc1O [Hexylresorcinol]
Melanin inhibition, positive control (B16-F1 melanocytes; 5 μg/ml, three days): *Hexylresorcinol (5 μg/ml) was used as a positive control: Melanin inhibition was found fo be 17% of control (p = 0.007) confirming the validation of the protocol.

O=c1cc(CO)occ1O [Kojic acid, kojic acid]
Tyrosinase enzyme activity (% of control), positive control (mushroom tyrosinase; 200 μM): *Kojic acid (200 μM) was used as a positive control: Tyrosinase enzyme activity was found to be 39% of control (p = 0.00) confirming the validation of the protocol.

NCCCC[C@H](N)C(=O)O [Lysine (LYS), Lysine]
Fold change/mean FPKM = 2.2 (MITF gene expression) [1]: 0.38
MITF gene expression effect (in words) [1]: No effect
MITF gene expression effect (in words) ([1]; listed as lysine): not significantly altered

CCCC(=O)[O-].[Na+] [Na butyrate]
IC50 value, NADPH Oxidase (NOX-4) (NADPH Oxidase 4 (NOX-4)): 170 µg/mL

NCCCC[C@H](N)C(=O)[O-].NCCCC[C@H](N)C(=O)[O-].[Zn+2] [Zn lysinate (ZLY), Zn lysinate]
Fold change/mean FPKM = 2.2 (MITF gene expression) [1]: 0.17
MITF gene expression effect (in words) [1]: No effect
MITF gene expression effect (in words) ([1]; listed as Zn lysinate): not significantly altered
Comments (MITF gene expression by PCR) (MITF gene expression): No Effect
% Melanin Inhibition (B16-F1 melanocytes; three days): 0%
Melanin-inhibitory activity (in words) (B16-F1 melanocytes): no significant effect
Tyrosinase enzyme activity (% of Control) (mushroom tyrosinase; 10 μg/ml): 80 (p = 0.02) % of Control
Tyrosinase enzyme activity (% of Control) (mushroom tyrosinase; 50 μg/ml): 90 (p = 0.95) % of Control
Tyrosinase enzyme activity (% of Control) (mushroom tyrosinase; 200 μg/ml): 90 (p = 0.23) % of Control
Inhibition of tyrosinase activity (in words) (mushroom tyrosinase): ineffective
